The values that follow come from patent publication US7045343B2, “Sterilization indicator test packs” (3M Innovative Properties Company, priority 1998, dated 2006).

The test system of experiment [1] is enzyme associated with Bacillus stearothermophilus spores. The experiment is described as follows: Rapid enzyme fluorescence readout of dual rapid readout indicators after prevacuum steam sterilization. The experiment is classed as biochemical. Particulars: 4-pulse prevacuum steam 121° C.; for FLUORESCENCE - PERCENT POSITIVE 1 HR / FLUORESCENCE - PERCENT POSITIVE 2 HR / FLUORESCENCE - PERCENT POSITIVE 3 HR / FLUORESCENCE - PERCENT POSITIVE 4 HR / FLUORESCENCE - PERCENT POSITIVE 5 HR / FLUORESCENCE - PERCENT POSITIVE 6 HR: 7–13 min. Put shortly:
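Bacillus stearothermophilus ATCC 7953 spores were coated with a sterilant-resistant chemical solution and pipetted onto paper strips at about 1×10^6 spores per strip. Each strip sat in a dual rapid readout indicator beside a crushable inner container of nutrient medium holding 4-methylumbelliferyl-alpha-D-glucoside at pH 7.6. Indicators went through a 4-pulse prevacuum steam cycle at 121° C, were activated, incubated at 60° C, and read for fluorescence on a 3M ATTEST Model 190 Rapid Autoreader.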

Experiment [2] deals with Bacillus stearothermophilus spores. The experiment is described as follows: Spore outgrowth (color change) of indicators after prevacuum steam sterilization. The experiment is classed as cell-based. To be noted: 4-pulse prevacuum steam 121° C., 7–13 min. Put shortly: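 Bacillus stearothermophilus ATCC 7953 spores were cleaned, mixed into a heated sterilant-resistant coating chemical solution and pipetted onto paper strips at about 1×10^6 spores per strip. The strips were dried and placed in indicators, then exposed to a 4-pulse prevacuum steam cycle at 121° C. After exposure the media ampoule was crushed, and growth was judged visually as a purple-to-yellow color change after 168 hours at 60° C.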

The test system of experiment [3] is enzyme associated with Bacillus stearothermophilus spores. The experiment is described as follows: Rapid enzyme fluorescence readout of indicators after hydrogen peroxide plasma sterilization. The class given is biochemical. To be noted: for FLUORESCENCE - PERCENT POSITIVE 1 HR / FLUORESCENCE - PERCENT POSITIVE 2 HR / FLUORESCENCE - PERCENT POSITIVE 3 HR / FLUORESCENCE - PERCENT POSITIVE 4 HR / FLUORESCENCE - PERCENT POSITIVE 5 HR: 1–22 min diffusion. As to the method:
(§1) Sterilization indicators for Examples 6–9 were prepared as described above with the exception that closure member 22 of the sterilization indicator was constructed of TYVEK™ high-density polyethylene fiber material, commercially available from E.I. du Pont de Nemours and Co., Wilmington, Del.
(§2) Sterilization indicators were made as described above with spores that had been coated with each of the chemicals and concentrations listed in Table 6. The indicators were placed in instrument trays and exposed to a hydrogen peroxide plasma sterilization procedure at 45–55° C. in a STERRAD™ 100SI GMP Sterilizer, obtained from Advanced Sterilization Products Co., Irvine, Calif. During the sterilization procedure a vacuum was drawn in the sterilization chamber for 5–6 minutes until the pressure was reduced to 300 mTorr. A 1.8 ml aliquot of an aqueous solution of 58–60% hydrogen peroxide was then injected into the sterilization chamber over a period of about 6 minutes, yielding an empty chamber concentration of […] hydrogen peroxide, and hydrogen peroxide vapor was allowed to diffuse throughout the chamber for 1–22 minutes at 6–10 Torr. A vacuum was then drawn, reducing the pressure to 500 mTorr and removing all detectable hydrogen peroxide vapor from the chamber.
(§3) After exposure to the sterilization procedure, the indicators were removed from the sterilizer and the inner containers containing the enzyme substrate and nutrient medium were crushed. The indicators were then incubated at 60° C. and examined for fluorescence every hour for 5 hours using a 3M™ ATTEST™ Model 190 Rapid Autoreader, commercially available from 3M Company, St. Paul, Minn. Additionally, spore growth, as indicated by a color change from purple to yellow, was determined visually after 168 hours of incubation.
(§4) The number of growth positive indicators detected after 168 hours of incubation is recorded in Table 6.
as §2, with “7.” for “6.”
as §2, with “8.” for “6.”, “chamber. […]” for “chamber.”

Experiment [4] relates to Bacillus stearothermophilus spores. The experiment is described as follows: Spore outgrowth (color change) of indicators after hydrogen peroxide plasma sterilization. The experiment is classed as cell-based. Particulars: 1–22 min diffusion. As to the method: as §1, §2, §3, §4
as §2, with “7.” for “6.”
as §2, with “8.” for “6.”, “chamber. […]” for “chamber.”

Consider `OCC(O)COCC(O)COCC(O)CO` (stereo not drawn) [Triglycerol], for which the “accuracy of sterilization indicators compared to indicators made with untreated spores” value in experiment [1] is recorded as “did not improve the accuracy”. Further, the “FLUORESCENCE - PERCENT POSITIVE 1 HR” value in experiment [1] (Example 2, 5 mg/ml coating) amounted to 0%; in experiment [1] (Example 2, 10 mg/ml coating) it was 0%; in experiment [1] (Example 2, 20 mg/ml coating), 0%; in experiment [1] (Example 2, 40 mg/ml coating) it was 0%; in experiment [1] (Example 2, 80 mg/ml coating), 0%. Besides, the “FLUORESCENCE - PERCENT POSITIVE 2 HR” value worked out at 0% in experiment [1] (Example 2, 5 mg/ml coating); 6.7% in experiment [1] (Example 2, 10 mg/ml coating); 0% in experiment [1] (Example 2, 20 mg/ml coating); 0% in experiment [1] (Example 2, 40 mg/ml coating); 3.2% in experiment [1] (Example 2, 80 mg/ml coating). Further, the “FLUORESCENCE - PERCENT POSITIVE 3 HR” value in experiment [1] (Example 2, 5 mg/ml coating) worked out at 0%; in experiment [1] (Example 2, 10 mg/ml coating), 20.0%; in experiment [1] (Example 2, 20 mg/ml coating), 8.3%; in experiment [1] (Example 2, 40 mg/ml coating) it was 29.6%; in experiment [1] (Example 2, 80 mg/ml coating), 38.7%. Also, the “FLUORESCENCE - PERCENT POSITIVE 4 HR” value stood at 10.0% in experiment [1] (Example 2, 5 mg/ml coating); 26.7% in experiment [1] (Example 2, 10 mg/ml coating); 29.2% in experiment [1] (Example 2, 20 mg/ml coating); 48.1% in experiment [1] (Example 2, 40 mg/ml coating); 51.6% in experiment [1] (Example 2, 80 mg/ml coating). Also, the “FLUORESCENCE - PERCENT POSITIVE 5 HR” value was found to be 30.0% in experiment [1] (Example 2, 5 mg/ml coating); 53.3% in experiment [1] (Example 2, 10 mg/ml coating); 41.7% in experiment [1] (Example 2, 20 mg/ml coating); 51.9% in experiment [1] (Example 2, 40 mg/ml coating); 58.1% in experiment [1] (Example 2, 80 mg/ml coating). The “FLUORESCENCE - PERCENT POSITIVE 6 HR” value in experiment [1] (Example 2, 5 mg/ml coating) is recorded as 40.0%; in experiment [1] (Example 2, 10 mg/ml coating), 60.0%; in experiment [1] (Example 2, 20 mg/ml coating) it was 45.8%; in experiment [1] (Example 2, 40 mg/ml coating) it was 63.0%; in experiment [1] (Example 2, 80 mg/ml coating), 64.5%. In addition, the “NO. GROWTH POSITIVE 168 HR” value was 10 in experiment [2] (Example 2, 5 mg/ml coating); 15 in experiment [2] (Example 2, 10 mg/ml coating); 24 in experiment [2] (Example 2, 20 mg/ml coating); 27 in experiment [2] (Example 2, 40 mg/ml coating); 31 in experiment [2] (Example 2, 80 mg/ml coating).

Consider Hexaglyn Di-Stearate, for which the “accuracy of sterilization indicators compared to indicators made with untreated spores” value in experiment [3] (1–3 hours after exposure) is “improved”. Besides, in experiment [3] (Example 8, 25 mg/ml coating), the “FLUORESCENCE - PERCENT POSITIVE 1 HR” value is on record as 100%, the “FLUORESCENCE - PERCENT POSITIVE 2 HR” value was determined as 100%, the “FLUORESCENCE - PERCENT POSITIVE 3 HR” value is listed as 100% and the “FLUORESCENCE - PERCENT POSITIVE 4 HR” value is 100%. Further, the “FLUORESCENCE - PERCENT POSITIVE 5 HR” value in experiment [3] (Example 8, 25 mg/ml coating) stood at 100%. Moreover, in experiment [3] (Example 8, 50 mg/ml coating), the “FLUORESCENCE - PERCENT POSITIVE 1 HR” value amounted to 100%, the “FLUORESCENCE - PERCENT POSITIVE 2 HR” value worked out at 100%, the “FLUORESCENCE - PERCENT POSITIVE 3 HR” value is given as 100% and the “FLUORESCENCE - PERCENT POSITIVE 4 HR” value turned out to be 100%. For the same compound, the “FLUORESCENCE - PERCENT POSITIVE 5 HR” value in experiment [3] (Example 8, 50 mg/ml coating) worked out at 100%. Besides, in experiment [3] (Example 8, 100 mg/ml coating), the “FLUORESCENCE - PERCENT POSITIVE 1 HR” value is listed as 100%, the “FLUORESCENCE - PERCENT POSITIVE 2 HR” value was determined as 100%, the “FLUORESCENCE - PERCENT POSITIVE 3 HR” value turned out to be 100% and the “FLUORESCENCE - PERCENT POSITIVE 4 HR” value is 100%. Besides, the “FLUORESCENCE - PERCENT POSITIVE 5 HR” value in experiment [3] (Example 8, 100 mg/ml coating) amounted to 100%. The “NO. GROWTH POSITIVE 168 HR” value in experiment [4] (Example 8, 25 mg/ml coating) turned out to be 16. Moreover, in experiment [4] (Example 8, 50 mg/ml coating), the “NO. GROWTH POSITIVE 168 HR” value was 16. Further, the “NO. GROWTH POSITIVE 168 HR” value in experiment [4] (Example 8, 100 mg/ml coating) is 16.

With POE(15) Glyceryl Monooleate, in experiment [1] (Example 5, 50 mg/ml coating), the “FLUORESCENCE - PERCENT POSITIVE 1 HR” value turned out to be 0%, the “FLUORESCENCE - PERCENT POSITIVE 2 HR” value is reported as 0%, the “FLUORESCENCE - PERCENT POSITIVE 3 HR” value stood at 0% and the “FLUORESCENCE - PERCENT POSITIVE 4 HR” value came to 0%. Moreover, the “NO. GROWTH POSITIVE 168 HR” value in experiment [2] (Example 5, 50 mg/ml coating) was 1.
